The source of these data is ChEMBL document CHEMBL2073977, “Endotoxin downregulates rat hepatic ntcp gene expression via decreased activity of critical transcription factors” (J Clin Invest, 1998).

Data set [1] addresses T1, Hepatic sodium/bile acid cotransporter (Rattus norvegicus, UniProt P26435).
T1 sequence (P26435 whole entry): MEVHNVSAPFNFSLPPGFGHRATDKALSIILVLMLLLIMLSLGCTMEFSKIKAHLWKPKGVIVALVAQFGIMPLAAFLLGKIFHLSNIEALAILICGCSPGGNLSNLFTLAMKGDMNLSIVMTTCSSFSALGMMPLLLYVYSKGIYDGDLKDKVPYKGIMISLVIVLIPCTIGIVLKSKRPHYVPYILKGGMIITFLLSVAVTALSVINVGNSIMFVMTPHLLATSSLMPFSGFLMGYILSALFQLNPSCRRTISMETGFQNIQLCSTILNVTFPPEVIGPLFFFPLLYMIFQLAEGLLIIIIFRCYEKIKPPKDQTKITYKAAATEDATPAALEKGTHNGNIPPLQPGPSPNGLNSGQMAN
The data set can be described thus: TP_TRANSPORTER: Western in vivo, liver of SD rat. The class given is functional, organism-based, Sprague-Dawley.

The target of data set [2] is T1, Hepatic sodium/bile acid cotransporter. The experiment in a line: TP_TRANSPORTER: Northern blot in vivo, liver of SD rat. The class given is functional, organism-based, Sprague-Dawley.

As for `CCCCCCCCCCCCCC(=O)OC(CCCCCCCCCCC)CC(=O)OC1C(NC(=O)CC(CCCCCCCCCCC)OC(=O)CCCCCCCCCCC)C(OC2CC(OC(=O)CC(O)CCCCCCCCCCC)C(NC(=O)CC(O)CCCCCCCCCCC)C(O)O2)OC(CO)C1OP(=O)(O)O` (configuration not stated), the Activity result in data set [1] and in data set [2] was “inducer [Decrease]” throughout.
